The values that follow are results of earlier work, collected in article PMC11289879 (RSC Chemical Biology, 2024).

In one series the test system is acute heart failure. Particulars: clinical trial (Novartis; second phase III).

In the case of DSWMEEVIKLCGRELVRAQIAICGMSTWS [B-chain], the “solubility in an acidic solvent” value is given as “poorly soluble”.

As for Human relaxin-2 [H2 relaxin], the “effect on the treatment of acute heart failure” value in the series with acute heart failure was “no significant effect”.
